Test results published in patent publication US9546152B2 (MERCK SHARP & DOHME CORP., priority 2012, dated 2017).

Experiments:
human orexin-2 receptor [1] = biological target: T1, human orexin-2 receptor (Homo sapiens (Human), UniProt O43614); assay: radioligand binding assay, orexin-2 receptor; details: membranes prepared from CHO cells expressing the OX2 receptor; read-out: hOX2R BIND hKi
Protocol: (§1) In a typical experiment the OX1 and OX2 receptor antagonistic activity of the compounds of the present invention was determined in accordance with the following experimental method. For intracellular calcium measurements, Chinese hamster ovary (CHO) cells expressing the rat orexin-1 receptor or the human orexin-2 receptor, are grown in Iscove's modified DMEM containing 2 mM L-glutamine, […], 1% hypoxanthine-thymidine supplement, 100 U/ml penicillin, 100 μg/ml streptomycin and 10% heat-inactivated fetal calf serum (FCS). The cells are seeded at 20,000 cells/well into Becton-Dickinson black 384-well clear bottom sterile plates coated with poly-D-lysine. All reagents were from GIBCO-Invitrogen Corp. The seeded plates are incubated overnight at 37° C. and 5% CO2. Ala-6,12 human orexin-A as the agonist is prepared as a 1 mM stock solution in 1% bovine serum albumin (BSA) and diluted in assay buffer (HBSS containing 20 mM HEPES, 0.1% BSA and 2.5 mM probenecid, pH7.4) for use in the assay at a final concentration of 70 pM. Test compounds are prepared as 10 mM stock solution in DMSO, then diluted in 384-well plates, first in DMSO, then assay buffer. On the day of the assay, cells are washed 3 times with 100 μl assay buffer and then incubated for 60 min (37° C., 5% CO2) in 60 μl assay buffer containing 1 μM Fluo-4AM ester, 0.02% pluronic acid, and 1% BSA. The dye loading solution is then aspirated and cells are washed 3 times with 100 μl assay buffer. 30 μl of that same buffer is left in each well. Within the Fluorescent Imaging Plate Reader (FLIPR, Molecular Devices), test compounds are added to the plate in a volume of 25 μl, incubated for 5 min and finally 25 μl of agonist is added. Fluorescence is measured for each well at 1 second intervals for 5 minutes and the height of each fluorescence peak is compared to the height of the fluorescence peak induced by 70 pM Ala-6,12 orexin-A with buffer in place of antagonist. […] Alternatively, compound potency can be assessed by a radioligand binding assay (described in Bergman et. al. Bioorg. Med. Chem. Lett. 2008, 18, 1425-1430) in which the inhibition constant (Ki) is determined in membranes prepared from CHO cells expressing either the OX1 or OX2 receptor. The intrinsic orexin receptor antagonist activity of a compound which may be used in the present invention may be determined by these assays.

human orexin-2 receptor [2] = biological target: T1, human orexin-2 receptor; assay: FLIPR Ca2+ Flux Assay, orexin-2 receptor; format: cell-based; details: CHO cells expressing the human orexin-2 receptor; agonist 70 pM Ala-6,12 human orexin-A; read-out: hOX2R FLIPR IC50
Protocol: as §1

rat orexin-1 receptor = rat orexin-1 receptor (Rattus norvegicus (Rat), UniProt P56718); assay: FLIPR Ca2+ Flux Assay, orexin-1 receptor; format: cell-based; details: CHO cells expressing the rat orexin-1 receptor; agonist 70 pM Ala-6,12 human orexin-A; read-out: hOX1R FLIPR IC50
Chain of rat orexin-1 receptor (P56718 whole entry): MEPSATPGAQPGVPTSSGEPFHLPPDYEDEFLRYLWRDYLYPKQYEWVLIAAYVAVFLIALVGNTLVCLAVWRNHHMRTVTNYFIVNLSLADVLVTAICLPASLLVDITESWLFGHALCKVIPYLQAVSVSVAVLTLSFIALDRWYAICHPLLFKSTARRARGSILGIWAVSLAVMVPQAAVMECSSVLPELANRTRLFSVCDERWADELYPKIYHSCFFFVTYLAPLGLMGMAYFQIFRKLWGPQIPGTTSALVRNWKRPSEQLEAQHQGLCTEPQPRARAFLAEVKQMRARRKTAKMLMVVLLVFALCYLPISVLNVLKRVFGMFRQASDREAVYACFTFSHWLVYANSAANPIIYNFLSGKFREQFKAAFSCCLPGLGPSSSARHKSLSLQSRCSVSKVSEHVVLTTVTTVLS
Protocol: as §1

T1 sequence (O43614 whole entry): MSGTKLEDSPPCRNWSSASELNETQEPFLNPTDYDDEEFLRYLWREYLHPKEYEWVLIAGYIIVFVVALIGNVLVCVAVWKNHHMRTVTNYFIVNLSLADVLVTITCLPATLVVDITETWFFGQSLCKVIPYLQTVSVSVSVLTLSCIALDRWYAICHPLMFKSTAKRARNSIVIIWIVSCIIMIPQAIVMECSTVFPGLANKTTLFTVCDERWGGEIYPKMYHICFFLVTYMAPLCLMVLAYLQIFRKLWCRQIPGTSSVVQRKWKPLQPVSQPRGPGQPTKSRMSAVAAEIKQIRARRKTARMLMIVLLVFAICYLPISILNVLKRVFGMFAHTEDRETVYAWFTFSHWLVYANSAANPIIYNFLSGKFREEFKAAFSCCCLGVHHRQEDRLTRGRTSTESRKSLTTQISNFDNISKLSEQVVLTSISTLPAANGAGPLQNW

Row | SMILES | Ki (human orexin-2 receptor [1]) [nM] | IC50 (human orexin-2 receptor [2]) [nM] | IC50 (rat orexin-1 receptor) [µM]
1 | Cc1c(C#N)ccnc1O[C@@H]1CC[C@@H](C)N(C(=O)c2ccccc2-c2nccs2)C1 [Example 44, 3-methyl-2-{[(3R,6R)-6-methyl-1-{[2-(1,3-thiazol-2-yl)phenyl]carbonyl}piperidin-3-yl]oxy}pyridine-4-carbonitrile] | 0.1 | 8 | –
2 | Cc1c(C#N)ccnc1O[C@@H]1CC[C@@H](C)N(C(=O)c2nscc2-c2ccccc2)C1 [Example 50] | 2 | 22 | –
3 | Cc1c(C#N)ccnc1O[C@@H]1CC[C@@H](C)N(C(=O)c2ccccc2-c2ncco2)C1 [Example 27, 3-methyl-2-{[(3R,6R)-6-methyl-1-{[2-(1,3-oxazol-2-yl)phenyl]carbonyl}piperidin-3-yl]oxy}pyridine-4-carbonitrile] | 0.3 | 17 | –
4 | Cc1c(C#N)ccnc1O[C@@H]1CC[C@@H](C)N(C(=O)c2ccncc2-c2ccccc2)C1 [Example 23, 3-methyl-2-({(3R,6R)-6-methyl-1-[(3-phenylpyridin-4-yl)carbonyl]piperidin-3-yl}oxy)pyridine-4-carbonitrile] | 16.6 | 69 | –
5 | CCc1c(C#N)ccnc1O[C@@H]1CC[C@@H](C)N(C(=O)c2ccccc2-n2nccn2)C1 [Example 93, 3-ethyl-2-{[(3R,6R)-6-methyl-1-{[2-(2H-1,2,3-triazol-2-yl)phenyl]carbonyl}piperidin-3-yl]oxy}pyridine-4-carbonitrile] | 0.1 | 8 | –
6 | Cc1c(C#N)ccnc1O[C@@H]1CC[C@@H](C)N(C(=O)c2c(F)cccc2-c2nccs2)C1 [Example 18, 2-{[(3R,6R)-1-{[2-fluoro-6-(1,3-thiazol-2-yl)phenyl]carbonyl}-6-methylpiperidin-3-yl]oxy}-3-methylpyridine-4-carbonitrile] | 0.1 | 7 | –
7 | COc1ccc(C(=O)N2C[C@H](Oc3nccc(C#N)c3C)CC[C@H]2C)c(OC)n1 [Example 73, 2-({(3R,6R)-1-[(2,6-dimethoxypyridin-3-yl)carbonyl]-6-methylpiperidin-3-yl}oxy)-3-methylpyridine-4-carbonitrile] | 32.7 | – | –
8 | COc1ccc(C(=O)N2C[C@H](Oc3nccc(C#N)c3OC)CC[C@H]2C)c(-c2ncccn2)n1 [Example 113, 3-methoxy-2-({(3R,6R)-1-[(6-methoxy-2-pyrimidin-2-ylpyridin-3-yl)carbonyl]-6-methylpiperidin-3-yl}oxy)pyridine-4-carbonitrile] | – | 108 | 10
9 | COc1ccc(C(=O)N2C[C@H](Oc3nccc(C#N)c3C)CC[C@H]2C)c(-n2nccn2)c1 [Example 7, 2-{[(3R,6R)-1-{[4-methoxy-2-(2H-1,2,3-triazol-2-yl)phenyl]carbonyl}-6-methylpiperidin-3-yl]oxy}-3-methylpyridine-4-carbonitrile] | 1.3 | 13 | –
10 | COc1ccc(C(=O)N2C[C@H](Oc3nccc(C#N)c3C)CC[C@H]2C)c(C2CC2)n1 [Example 5, 2-({(3R,6R)-1-[(2-cyclopropyl-6-methoxypyridin-3-yl)carbonyl]-6-methylpiperidin-3-yl}oxy)-3-methylpyridine-4-carbonitrile] | 1.7 | 32 | –
11 | Cc1c(C#N)ccnc1O[C@@H]1CC[C@@H](C)N(C(=O)c2ccc(Cl)cc2-n2nccn2)C1 [Example 4, 2-{[(3R,6R)-1-{[4-chloro-2-(2H-1,2,3-triazol-2-yl)phenyl]carbonyl}-6-methylpiperidin-3-yl]oxy}-3-methylpyridine-4-carbonitrile] | 0.4 | 12 | –
12 | Cc1c(C#N)ccnc1O[C@@H]1CC[C@@H](C)N(C(=O)c2cccc(F)c2-n2nccn2)C1 [Example 12, 2-{[(3R,6R)-1-{[3-fluoro-2-(2H-1,2,3-triazol-2-yl)phenyl]carbonyl}-6-methylpiperidin-3-yl]oxy}-3-methylpyridine-4-carbonitrile] | 1 | 12 | –
13 | COc1ccc(C(=O)N2C[C@H](Oc3nccc(C#N)c3C)CC[C@H]2C)c(-c2ccncc2)n1 [Example 48, 2-({(3R,6R)-1-[(6-methoxy-2,4′-bipyridin-3-yl)carbonyl]-6-methylpiperidin-3-yl}oxy)-3-methylpyridine-4-carbonitrile] | 8.9 | 65 | –
14 | Cc1c(C#N)ccnc1O[C@@H]1CC[C@@H](C)N(C(=O)c2ccccc2OC(C)C)C1 [Example 21, 3-methyl-2-{[(3R,6R)-6-methyl-1-{[2-(1-methylethoxy)phenyl]carbonyl}piperidin-3-yl]oxy}pyridine-4-carbonitrile] | 0.6 | 8 | –
15 | Cc1c(C#N)ccnc1O[C@@H]1CC[C@@H](C)N(C(=O)c2cc(F)ccc2-n2nccn2)C1 [Example 69, 2-{[(3R,6R)-1-{[5-fluoro-2-(2H-1,2,3-triazol-2-yl)phenyl]carbonyl}-6-methylpiperidin-3-yl]oxy}-3-methylpyridine-4-carbonitrile] | 0.6 | 11 | –
16 | CSc1ccc(C(=O)N2C[C@H](Oc3nccc(C#N)c3C)CC[C@H]2C)c(-n2nccn2)n1 [Example 86, 3-methyl-2-{[(3R,6R)-6-methyl-1-{[6-(methylsulfanyl)-2-(2H-1,2,3-triazol-2-yl)pyridin-3-yl]carbonyl}-piperidin-3-yl]oxy}pyridine-4-carbonitrile] | 5.1 | 126 | –
17 | Cc1c(C#N)ccnc1O[C@@H]1CC[C@@H](C)N(C(=O)c2nscc2-n2nccn2)C1 [Example 55, 3-methyl-2-{[(3R,6R)-6-methyl-1-{[4-(2H-1,2,3-triazol-2-yl)isothiazol-3-yl]carbonyl}piperidin-3-yl]oxy}pyridine-4-carbonitrile] | 7.4 | 81 | –
18 | Cc1c(C#N)ccnc1O[C@@H]1CC[C@@H](C)N(C(=O)c2ccccc2-c2cscn2)C1 [Example 33, 3-methyl-2-{[(3R,6R)-6-methyl-1-{[2-(1,3-thiazol-4-yl)phenyl]carbonyl}piperidin-3-yl]oxy}pyridine-4-carbonitrile] | 0.2 | 6 | –
19 | Cc1c(C#N)ccnc1O[C@@H]1CC[C@@H](C)N(C(=O)C2=C(c3ccccn3)CCC2)C1 [Example 63, 3-methyl-2-({(3R,6R)-6-methyl-1-[(2-pyridin-2-ylcyclopent-1-en-1-yl)carbonyl]piperidin-3-yl}oxy)pyridine-4-carbonitrile] | 4 | 59 | –
20 | COc1cc(-n2nccn2)c(C(=O)N2C[C@H](Oc3nccc(C#N)c3C)CC[C@H]2C)cn1 [Example 85, 2-{[(3R,6R)-1-{[6-methoxy-4-(2H-1,2,3-triazol-2-yl)pyridin-3-yl]carbonyl}-6-methylpiperidin-3-yl]oxy}-3-methylpyridine-4-carbonitrile] | 43.2 | – | –
21 | COc1c(C#N)ccnc1O[C@@H]1CC[C@@H](C)N(C(=O)c2ccsc2-n2nccn2)C1 [Example 106, 3-methoxy-2-{[(3R,6R)-6-methyl-1-{[2-(2H-1,2,3-triazol-2-yl)thiophen-3-yl]carbonyl}piperidin-3-yl]oxy}pyridine-4-carbonitrile] | – | 8 | 1.96
22 | Cc1c(C#N)ccnc1O[C@@H]1CC[C@@H](C)N(C(=O)c2sncc2-c2ccccc2)C1 [Example 20, 3-methyl-2-({(3R,6R)-6-methyl-1-[(4-phenylisothiazol-5-yl)carbonyl]piperidin-3-yl}oxy)pyridine-4-carbonitrile] | 15.2 | 89 | –
23 | COc1c(C#N)ccnc1O[C@@H]1CC[C@@H](C)N(C(=O)c2ccc(F)cc2-n2nccn2)C1 [Example 98, 2-{[(3R,6R)-1-{[4-fluoro-2-(2H-1,2,3-triazol-2-yl)phenyl]carbonyl}-6-methylpiperidin-3-yl]oxy}-3-methoxypyridine-4-carbonitrile] | 0.3 | 19 | –
24 | Cc1c(C#N)ccnc1O[C@@H]1CC[C@@H](C)N(C(=O)c2ccccc2OC(F)(F)F)C1 [Example 62, 3-methyl-2-{[(3R,6R)-6-methyl-1-{[2-(trifluoromethoxy)phenyl]carbonyl}piperidin-3-yl]oxy}pyridine-4-carbonitrile] | 0.8 | 16 | –
25 | COc1ccc(C(=O)N2C[C@H](Oc3nccc(C#N)c3C)CC[C@H]2C)c(C2CCC2)n1 [Example 66] | 1.4 | 77 | –
